From patent US20260317324A1, “BIFUNCTIONAL COMPOUNDS FOR DEGRADING BRAF VIA UBIQUITIN PROTEOSOME PATHWAY” (Nurix Therapeutics, Inc., priority 2023, published 2026)

Key:
Type in all cases: cell-based
BRAF V600E = target: T1, BRAF V600E (Homo sapiens, UniProt P15056, V600E); experiment: BRAF HiBiT degradation assay, C-terminal HiBiT-tagged BRAF V600E A375 cells (clone 1F10), Nano-Glo HiBiT Lytic assay; settings: A375 (BRAF V600E, Class 1); for DC50: DC50 at 50% degradation; for Dmax: A-375, observed Dmax, % protein degraded relative to DMSO control
T1 construct: endogenous C-terminal HiBiT fusion tag on BRAF V600E allele; endogenous in cells; host or cells: A375 clone 1F10 (CRISPR-Cas9 knock-in of the HiBiT tag; parental A375 from ATCC)
Outline: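 Endogenous BRAF V600E-HiBiT A375 (1F10), 10,000 cells/well, 24 h preculture; cpd 11-pt, 1 μM–0.01 nM half-log, n=2, 0.2% DMSO; HiBiT lytic detection 10 min RT; DC50 = fitted conc at Y=50; Obs. Dmax vs DMSO.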

BRAF G469A = target: T2, BRAF G469A (Homo sapiens, UniProt P15056, G469A); experiment: BRAF HiBiT degradation assay, C-terminal HiBiT-tagged BRAF G469A overexpressed in HCT-116 BRAF−/− cells (clone 34), Nano-Glo HiBiT Lytic assay; settings: BRAF G469A (Class 2), HCT-116 BRAF−/− cells; for DC50: DC50 at 50% degradation; for Dmax: observed Dmax relative to DMSO control
T2 construct: Horizon Discovery (HCT-116 BRAF−/− cells); host or cells: HCT-116 BRAF−/− cells, clone 34, lentiviral transduction
Outline: (§1)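 Luminescence from the lytic HiBiT reagent, read after 10 min at room temperature, measured tagged BRAF remaining in lentivirally transduced HCT-116 BRAF−/− cells. Compounds were tested from 1 μM to 0.01 nM in half-log steps at 0.2% DMSO. DC50 values were fitted at 50% remaining.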

BRAF D594G = target: T3, BRAF D594G (Homo sapiens, UniProt P15056, D594G); experiment: BRAF HiBiT degradation assay, C-terminal HiBiT-tagged BRAF D594G overexpressed in HCT-116 BRAF−/− cells (clone 63), Nano-Glo HiBiT Lytic assay; settings: BRAF D594G (Class 3), HCT-116 BRAF−/− cells; for DC50: DC50 at 50% degradation; for Dmax: observed Dmax relative to DMSO control
T3 construct: Horizon Discovery (HCT-116 BRAF−/− cells); host or cells: HCT-116 BRAF−/− cells, clone 63, lentiviral transduction
Outline: as §1

BRAF G466V = target: T4, BRAF G466V (Homo sapiens, UniProt P15056, G466V); experiment: BRAF HiBiT degradation assay, C-terminal HiBiT-tagged BRAF G466V overexpressed in HCT-116 BRAF−/− cells (clone 8), Nano-Glo HiBiT Lytic assay; settings: BRAF G466V (Class 3), HCT-116 BRAF−/− cells; for DC50: DC50 at 50% degradation; for Dmax: observed Dmax relative to DMSO control
T4 construct: Horizon Discovery (HCT-116 BRAF−/− cells); host or cells: HCT-116 BRAF−/− cells, clone 8, lentiviral transduction
Outline: as §1

T1 sequence (P15056 whole entry V600E, the tested form may be a part): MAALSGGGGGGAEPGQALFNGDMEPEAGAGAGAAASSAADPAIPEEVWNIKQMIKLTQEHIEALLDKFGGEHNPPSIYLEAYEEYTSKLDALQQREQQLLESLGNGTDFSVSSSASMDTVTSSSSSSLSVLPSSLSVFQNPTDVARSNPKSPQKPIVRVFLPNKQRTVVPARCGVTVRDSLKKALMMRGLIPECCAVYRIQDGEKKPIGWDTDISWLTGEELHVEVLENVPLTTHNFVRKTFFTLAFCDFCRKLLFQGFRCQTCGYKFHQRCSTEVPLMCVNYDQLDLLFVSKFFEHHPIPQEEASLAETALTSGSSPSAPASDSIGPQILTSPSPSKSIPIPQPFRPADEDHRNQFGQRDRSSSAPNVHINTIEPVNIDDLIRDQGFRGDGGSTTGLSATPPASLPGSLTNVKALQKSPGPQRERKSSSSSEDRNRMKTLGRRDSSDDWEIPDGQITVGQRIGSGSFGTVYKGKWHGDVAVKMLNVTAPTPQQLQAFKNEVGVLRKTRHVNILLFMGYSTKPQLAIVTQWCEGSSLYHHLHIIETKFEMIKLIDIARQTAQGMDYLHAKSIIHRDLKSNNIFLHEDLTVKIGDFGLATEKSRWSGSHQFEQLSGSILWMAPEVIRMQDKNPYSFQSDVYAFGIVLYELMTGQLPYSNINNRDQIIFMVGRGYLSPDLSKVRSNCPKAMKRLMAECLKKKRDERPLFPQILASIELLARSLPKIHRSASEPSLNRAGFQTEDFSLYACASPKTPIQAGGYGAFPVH
T2 sequence (P15056 whole entry G469A): as the sequence (P15056 whole entry V600E, the tested form may be a part) above, with G469A, E600V counted along it
T4 sequence (P15056 whole entry G466V): as the sequence (P15056 whole entry V600E, the tested form may be a part) above, with G466V, E600V counted along it
T3 sequence (P15056 whole entry D594G): as the sequence (P15056 whole entry V600E, the tested form may be a part) above, with D594G, E600V counted along it

`O=C1CC[C@H](c2ccc(N3CCC(CN4CCN(c5ccc(-n6cc(-c7cc(F)cc(NS(=O)(=O)N8CC[C@@H](F)C8)c7F)c(-c7ccncc7)n6)nc5)CC4)CC3)nc2)C(=O)N1` [Compound 305, (3R)—N-{3-[1-(5-{4-[(1-{5-[(3R)-2,6-dioxopiperidin-3-yl]pyridin-2-yl}piperidin-4-yl)methyl]piperazin-1-yl}pyridin-2-yl)-3-(pyridin-4-yl)-1H-pyrazol-4-yl]-2,5-difluorophenyl}-3-fluoropyrrolidine-1-sulfonamide] was tested, and the DC50 (BRAF V600E) was less than 10 nM, the Dmax (BRAF V600E) was greater than 70% and the DC50 (BRAF G469A) was less than 10 nM. For the same compound, the Dmax (BRAF G469A) was greater than 70%, the DC50 (BRAF D594G) was less than 10 nM and the Dmax (BRAF D594G) was greater than 70%. It also gave a DC50 (BRAF G466V) of less than 10 nM and a Dmax (BRAF G466V) greater than 70%.
Compound `O=C1CCN(c2ccc(N3CCC(CN4CCN(c5ccc(-n6cc(-c7cc(C(F)F)cc(NS(=O)(=O)N8CCCC8)c7F)c(-c7ccncc7)n6)c(F)c5)CC4)CC3)cc2)C(=O)N1` [Compound 356, N-[5-(difluoromethyl)-3-(1-{4-[4-({1-[4-(2,4-dioxo-1,3-diazinan-1-yl)phenyl]piperidin-4-yl}methyl)piperazin-1-yl]-2-fluorophenyl}-3-(pyridin-4-yl)-1H-pyrazol-4-yl)-2-fluorophenyl]pyrrolidine-1-sulfonamide] has a DC50 (BRAF V600E) of 10 to 50 nM, a Dmax (BRAF V600E) greater than 70% and a DC50 (BRAF G469A) greater than 500 nM. The Dmax (BRAF G469A) was less than 30%, the DC50 (BRAF D594G) was greater than 500 nM and the Dmax (BRAF D594G) was 30 to 70%. The DC50 (BRAF G466V) was 10 to 50 nM and the Dmax (BRAF G466V) was 30 to 70%.
`C[C@@H]1CN(c2ccc(-n3cc(-c4cc(Cl)cc(NS(=O)(=O)N5CCCC5)c4F)c(-c4ccncc4)n3)cc2)CCN1CC1CCN(c2ccc([C@H]3CCC(=O)NC3=O)cc2)CC1` [Compound 316, N-[5-chloro-3-(1-{4-[(3R)-4-[(1-{4-[(3R)-2,6-dioxopiperidin-3-yl]phenyl}piperidin-4-yl)methyl]-3-methylpiperazin-1-yl]phenyl}-3-(pyridin-4-yl)-1H-pyrazol-4-yl)-2-fluorophenyl]pyrrolidine-1-sulfonamide] was tested, and the DC50 (BRAF V600E) was less than 10 nM, the Dmax (BRAF V600E) was greater than 70% and the DC50 (BRAF G469A) was 10 to 50 nM. For the same compound, the Dmax (BRAF G469A) was greater than 70%, the DC50 (BRAF D594G) was less than 10 nM and the Dmax (BRAF D594G) was 30 to 70%. The DC50 (BRAF G466V) was less than 10 nM and the Dmax (BRAF G466V) was greater than 70%.
Work on `O=C1CC[C@H](c2ccc(N3CCC(CN4CCN(c5ccc(-n6cc(-c7cc(Cl)cc(NS(=O)(=O)N8CC[C@@H](F)C8)c7F)c(-c7ccncc7)n6)c(F)c5)CC4)CC3)cc2)C(=O)N1` [Compound 336, (3R)—N-{5-chloro-3-[1-(4-{4-[(1-{4-[(3R)-2,6-dioxopiperidin-3-yl]phenyl}piperidin-4-yl)methyl]piperazin-1-yl}-2-fluorophenyl)-3-(pyridin-4-yl)-1H-pyrazol-4-yl]-2-fluorophenyl}-3-fluoropyrrolidine-1-sulfonamide] yielded a DC50 (BRAF V600E) of less than 10 nM, a Dmax (BRAF V600E) greater than 70% and a DC50 (BRAF G469A) of 10 to 50 nM. The Dmax (BRAF G469A) was greater than 70%, the DC50 (BRAF D594G) was less than 10 nM and the Dmax (BRAF D594G) was greater than 70%. For the same compound, the DC50 (BRAF G466V) was less than 10 nM and the Dmax (BRAF G466V) was greater than 70%.
With `O=C1CCN(c2ccc(N3CCC(CN4CCN(c5ccc(-n6cc(-c7cc(Cl)cc(NS(=O)(=O)N8CC[C@@H](F)C8)c7F)c(-c7ccncc7)n6)nc5)CC4)CC3)cc2)C(=O)N1` [Compound 295, (3R)—N-[5-chloro-3-(1-{5-[4-({1-[4-(2,4-dioxo-1,3-diazinan-1-yl)phenyl]piperidin-4-yl}methyl)piperazin-1-yl]pyridin-2-yl}-3-(pyridin-4-yl)-1H-pyrazol-4-yl)-2-fluorophenyl]-3-fluoropyrrolidine-1-sulfonamide] the DC50 (BRAF V600E) was less than 10 nM, the Dmax (BRAF V600E) was greater than 70% and the DC50 (BRAF G469A) was 50 to 500 nM. The Dmax (BRAF G469A) was 30 to 70%, the DC50 (BRAF D594G) was less than 10 nM and the Dmax (BRAF D594G) was 30 to 70%. The DC50 (BRAF G466V) was less than 10 nM and the Dmax (BRAF G466V) was 30 to 70%.
